Source: patent publication US20210137948A1, “TREATMENT OF INFECTIONS CAUSED BY NEISSERIA GONOCOCCUS USING A HALOGENATED SALICYLANILIDE” (priority 2018, published 2021)
Like-named read-outs stand apart in the source and are kept apart here.

What was measured:
rabbits = settings: p.o.; cited from earlier work
[1] = tested on: Neisseria gonorrhoeae CDC panel consisting of 48 isolates; test: Agar dilution MIC, CDC panel of 48 isolates (Example 2); type: cell-based; settings: for MIC: Neisseria gonorrhoeae, read-out: Minimal inhibitory concentration; for in vitro activity (in words): against N. gonococcus (N. gonorrhoeae), Example 2 conclusion
Experimental: Neisseria gonorrhoeae (Neisseria gonocossus) were tested for antimicrobial susceptibility using agar dilution as described by the Clinical and Laboratory Standards Institute (CLSI), see reference (4).
The concentrations tested for each compound encompass the reported interpretive breakpoints and consist of 8 or more doubling dilutions, ensuring that there is one dilution below the lowest value of QC.
GC agar base +1% defined growth supplement.
Initial screening strains: Neisseria gonorrhoeae CDC panel consisting of 48 isolates. The strains were provided by Clinical and Environmental Microbiology Branch, Division of Healthcare Quality Promotion, CDC (Atlanta, US).
Dilution scheme for reference method: Prepare intermediate 100× antimicrobial agent solutions by making successive serial twofold dilutions. Then, add one part of the 100× antimicrobial solution to […] of molten agar. Plates containing no antimicrobial agent solutions are made for use as growth controls. It is important that no longer than one hour elapses between the time that the stock solution is thawed, the dilutions are prepared and added to the base medium and the plates are poured, see reference (5).
• Add appropriate dilutions of antimicrobial solution to molten test agars that have been allowed to equilibrate in a water bath to 50° C. • Mix the agar and antimicrobial solution thoroughly and pour (20 mL) into Petri dishes on a level surface. Pour quickly after mixing to prevent cooling and partial solidification in the mixing container. Avoid generating bubbles when mixing. • Allow the agar to solidify at room temperature and store them in sealed plastic bags at 2 to 8° C. for up to five days. Preferably use with 24 hours. • Allow plates stored at 2 to 8° C. to equilibrate to room temperature before use. Make certain that the agar surface is dry before inoculating the plates. If necessary, place the plates in an incubator or laminar flow hood for approximately 30 minutes with their lids ajar to hasten drying of the agar surface.
Inoculum preparation: Prepare a standardized inoculum for the agar dilution method by suspending isolated colonies of Neisseria gonorrhoeae selected from an 18-24 hour-old chocolate agar plate directly in Mueller Hinton Broth (MHB) to achieve the density equivalent to a 0.5 McFarland standard and adjusted to obtain a cell density of ˜1-2×10^8 CFU/mL. For N. gonorrhoeae, the McFarland solutions are made at a reading of ˜0.80 in densitometer (Grant Instruments DEN-1B Densitometer) because these values have been evaluated and correspond to the desired CFU/mL count.
Dilution of inoculum suspension: Cultures adjusted to the 0.5 McFarland standard contain approximately 1 to 2×10^8 CFU/mL with most species, and the final inoculum required is 10^4 CFU per spot. When using replicators with 3-mm pins that deliver ˜2.5 μL, dilute the 0.5 McFarland suspension 1:10 in sterile MHB to obtain a concentration of 10^7 CFU/mL. The final inoculum on the agar will be approximately 10^4 CFU per spot. Use the adjusted suspensions for final inoculation within 60 minutes of preparation, see reference (5).
The following procedure was followed: • Arrange the tubes containing the adjusted and diluted bacterial suspensions (10^7 CFU/mL) in order in a rack. Place an aliquot of each well-mixed suspension into the corresponding well in the replicator inoculum block (if being used). • Mark the agar plates for orientation of the inoculum spots. • Apply an aliquot of each inoculum (2.5 μL) to the agar surface, either with an inocula-replicating device or pipette, to obtain a final concentration of ˜10^4 CFU/spot. • Inoculate a growth-control plate (no antimicrobial agent) first and then, starting with the lowest concentration, inoculate the plates containing the different antimicrobial concentrations. […]

mice = settings: p.o.; cited from earlier work
rats = settings: cited from earlier work
[2] = Neisseria gonorrhoeae strain CDC # 165
[3] = Neisseria gonorrhoeae strain CDC # 166
[4] = Neisseria gonorrhoeae strain CDC # 167
[5] = Neisseria gonorrhoeae strain CDC # 169
[6] = Neisseria gonorrhoeae strain CDC # 170
[7] = Neisseria gonorrhoeae strain CDC # 171
[8] = Neisseria gonorrhoeae strain CDC # 172
[9] = Neisseria gonorrhoeae strain CDC # 173
[10] = Neisseria gonorrhoeae strain CDC # 174
[11] = Neisseria gonorrhoeae strain CDC # 175
[12] = Neisseria gonorrhoeae strain CDC # 176
[13] = Neisseria gonorrhoeae strain CDC # 177
[14] = Neisseria gonorrhoeae strain CDC # 178
[15] = Neisseria gonorrhoeae strain CDC # 179
[16] = Neisseria gonorrhoeae strain CDC # 180
[17] = Neisseria gonorrhoeae strain CDC # 181
[18] = Neisseria gonorrhoeae strain CDC # 182
[19] = Neisseria gonorrhoeae strain CDC # 183
[20] = Neisseria gonorrhoeae strain CDC # 184
[21] = Neisseria gonorrhoeae strain CDC # 185
[22] = Neisseria gonorrhoeae strain CDC # 186
[23] = Neisseria gonorrhoeae strain CDC # 187
[24] = Neisseria gonorrhoeae strain CDC # 188
[25] = Neisseria gonorrhoeae strain CDC # 189
[26] = Neisseria gonorrhoeae strain CDC # 190
[27] = Neisseria gonorrhoeae strain CDC # 191
[28] = Neisseria gonorrhoeae strain CDC # 192
[29] = Neisseria gonorrhoeae strain CDC # 193
[30] = Neisseria gonorrhoeae strain CDC # 194
[31] = Neisseria gonorrhoeae strain CDC # 195
[32] = Neisseria gonorrhoeae strain CDC # 196
[33] = Neisseria gonorrhoeae strain CDC # 198
[34] = Neisseria gonorrhoeae strain CDC # 199
[35] = Neisseria gonorrhoeae strain CDC # 200
[36] = Neisseria gonorrhoeae strain CDC # 201
[37] = Neisseria gonorrhoeae strain CDC # 202
[38] = Neisseria gonorrhoeae strain CDC # 203
[39] = Neisseria gonorrhoeae strain CDC # 204
[40] = Neisseria gonorrhoeae strain CDC # 205
[41] = Neisseria gonorrhoeae strain CDC # 206
[42] = Neisseria gonorrhoeae strain CDC # 207
[43] = Neisseria gonorrhoeae strain CDC # 208
[44] = Neisseria gonorrhoeae strain CDC # 209
[45] = Neisseria gonorrhoeae strain CDC # 210
[46] = Neisseria gonorrhoeae strain CDC # 211
[47] = Neisseria gonorrhoeae strain CDC # 212
[48] = Neisseria gonorrhoeae strain CDC # 213
[49] = Neisseria gonorrhoeae strain CDC # 214

For `O=C(Nc1cc(Cl)cc(Cl)c1O)c1c(O)c(Cl)cc(Cl)c1Cl` [Oxyclosanide, oxyclozanide], the LD50 (rabbits) is given as 3200 mg/kg, the MIC [1, 2] is given as at most 0.25 µg/mL and the MIC [1, 3] is given as at most 0.25 µg/mL. The MIC [1, 4] was at most 0.25 µg/mL, the MIC [1, 5] was at most 0.25 µg/mL and the MIC [1, 6] was at most 0.25 µg/mL. For the same compound, the MIC [1, 7] was at most 0.25 µg/mL, the MIC [1, 8] was at most 0.25 µg/mL and the MIC [1, 9] was at most 0.25 µg/mL. For the same compound, the MIC [1, 10] was at most 0.25 µg/mL, the MIC [1, 11] was at most 0.25 µg/mL and the MIC [1, 12] was at most 0.25 µg/mL. For the same compound, the MIC [1, 13] was at most 0.25 µg/mL, the MIC [1, 14] was at most 0.25 µg/mL and the MIC [1, 15] was at most 0.25 µg/mL. The MIC [1, 16] was at most 0.25 µg/mL, the MIC [1, 17] was at most 0.25 µg/mL and the MIC [1, 18] was at most 0.25 µg/mL. It also gave an MIC [1, 19] of at most 0.25 µg/mL, an MIC [1, 20] of at most 0.25 µg/mL and an MIC [1, 21] of at most 0.25 µg/mL. It also gave an MIC [1, 22] of at most 0.25 µg/mL, an MIC [1, 23] of at most 0.25 µg/mL and an MIC [1, 24] of at most 0.25 µg/mL. The MIC [1, 25] was at most 0.25 µg/mL, the MIC [1, 26] was at most 0.25 µg/mL and the MIC [1, 27] was at most 0.25 µg/mL. The MIC [1, 28] was at most 0.25 µg/mL, the MIC [1, 29] was at most 0.25 µg/mL and the MIC [1, 30] was at most 0.25 µg/mL. It also gave an MIC [1, 31] of at most 0.25 µg/mL, an MIC [1, 32] of at most 0.25 µg/mL and an MIC [1, 33] of at most 0.25 µg/mL. For the same compound, the MIC [1, 34] was at most 0.25 µg/mL, the MIC [1, 35] was at most 0.25 µg/mL and the MIC [1, 36] was at most 0.25 µg/mL. It also gave an MIC [1, 37] of at most 0.25 µg/mL, an MIC [1, 38] of at most 0.25 µg/mL and an MIC [1, 39] of at most 0.25 µg/mL. The MIC [1, 40] was at most 0.25 µg/mL, the MIC [1, 41] was at most 0.25 µg/mL and the MIC [1, 42] was at most 0.25 µg/mL. It also gave an MIC [1, 43] of at most 0.25 µg/mL, an MIC [1, 44] of at most 0.25 µg/mL and an MIC [1, 45] of at most 0.25 µg/mL. For the same compound, the MIC [1, 46] was at most 0.25 µg/mL, the MIC [1, 47] was at most 0.25 µg/mL and the MIC [1, 48] was at most 0.25 µg/mL. For the same compound, the MIC [1, 49] was at most 0.25 µg/mL, the “in vitro activity (in words)” value [1] was “Good in vitro activity” and the LD50 (mice) was 300 mg/kg. For the same compound, the “LD50, median” value (rats; p.o., median of the studies) was 2250 mg/kg and the LD50 (rats; p.o.) was 980 to 3519 mg/kg.
In the case of `O=C(Nc1ccc([N+](=O)[O-])cc1Cl)c1cc(Cl)ccc1O` [Niclosamide, 2′,5-dichloro-4′-nitrosalicylanilide], the LD50 (rabbits) is listed as 5000 mg/kg, the MIC [1, 2] is listed as at most 0.25 µg/mL and the MIC [1, 3] is listed as at most 0.25 µg/mL. It also gave an MIC [1, 4] of at most 0.25 µg/mL, an MIC [1, 5] of at most 0.25 µg/mL and an MIC [1, 6] of at most 0.25 µg/mL. The MIC [1, 7] was at most 0.25 µg/mL, the MIC [1, 8] was at most 0.25 µg/mL and the MIC [1, 9] was at most 0.25 µg/mL. For the same compound, the MIC [1, 10] was at most 0.25 µg/mL, the MIC [1, 11] was at most 0.25 µg/mL and the MIC [1, 12] was at most 0.25 µg/mL. The MIC [1, 13] was at most 0.25 µg/mL, the MIC [1, 14] was at most 0.25 µg/mL and the MIC [1, 15] was at most 0.25 µg/mL. For the same compound, the MIC [1, 16] was at most 0.25 µg/mL, the MIC [1, 17] was at most 0.25 µg/mL and the MIC [1, 18] was at most 0.25 µg/mL. The MIC [1, 19] was at most 0.25 µg/mL, the MIC [1, 20] was at most 0.25 µg/mL and the MIC [1, 21] was at most 0.25 µg/mL. For the same compound, the MIC [1, 22] was at most 0.25 µg/mL, the MIC [1, 23] was at most 0.25 µg/mL and the MIC [1, 24] was at most 0.25 µg/mL. The MIC [1, 25] was at most 0.25 µg/mL, the MIC [1, 26] was at most 0.25 µg/mL and the MIC [1, 27] was at most 0.25 µg/mL. It also gave an MIC [1, 28] of at most 0.25 µg/mL, an MIC [1, 29] of at most 0.25 µg/mL and an MIC [1, 30] of at most 0.25 µg/mL. It also gave an MIC [1, 31] of at most 0.25 µg/mL, an MIC [1, 32] of at most 0.25 µg/mL and an MIC [1, 33] of at most 0.25 µg/mL. It also gave an MIC [1, 34] of at most 0.25 µg/mL, an MIC [1, 35] of at most 0.25 µg/mL and an MIC [1, 36] of at most 0.25 µg/mL. It also gave an MIC [1, 37] of at most 0.25 µg/mL, an MIC [1, 38] of at most 0.25 µg/mL and an MIC [1, 39] of at most 0.25 µg/mL. The MIC [1, 40] was at most 0.25 µg/mL, the MIC [1, 41] was at most 0.25 µg/mL and the MIC [1, 42] was at most 0.25 µg/mL. The MIC [1, 43] was at most 0.25 µg/mL, the MIC [1, 44] was at most 0.25 µg/mL and the MIC [1, 45] was at most 0.25 µg/mL. For the same compound, the MIC [1, 46] was at most 0.25 µg/mL, the MIC [1, 47] was at most 0.25 µg/mL and the MIC [1, 48] was at most 0.25 µg/mL. The MIC [1, 49] was at most 0.25 µg/mL, the “in vitro activity (in words)” value [1] was “Good in vitro activity” and the LD50 (mice) was over 5000 mg/kg. For the same compound, the LD50 (rats; dermal) was 2000 mg/kg and the LD50 (rats; p.o.) was 5000 mg/kg.
